# Data from patent US7304093B2, “Ketone compounds and compositions for cholesterol management and related uses” (Esperion Therapeutics, Inc., priority 2000, dated 2007).
# Like-named read-outs stand apart in the source and are kept apart here.
# Assays:
# primary rat hepatocytes = assay: Inhibition of lipid synthesis ([1-14C]-acetate incorporation) in primary cultures of rat hepatocytes; format: cell-based; details: Hepatocyte, 4 h incubation with [1-14C]-acetate
# Description: Compounds were tested for inhibition of lipid synthesis in primary cultures of rat hepatocytes. Male Sprague-Dawley rats were anesthetized with intraperitoneal injection of sodium pentobarbital (80 mg/kg). Rat hepatocytes were isolated essentially as described by the method of Seglen (Seglen, P. O. Hepatocyte suspensions and cultures as tools in experimental carcinogenesis. J. Toxicol. Environ. Health 1979, 5, 551-560). Hepatocytes were suspended in Dulbecco's Modified Eagles Medium containing 25 mM D-glucose, 14 mM HEPES, 5 mM L-glutamine, 5 mM leucine, 5 mM alanine, 10 mM lactate, 1 mM pyruvate, 0.2% bovine serum albumin, 17.4 mM non-essential amino acids, 20% fetal bovine serum, […] and 20 μg/mL gentamycin) and plated at a density of 1.5×10^5 cells/cm^2 on collagen-coated 96-well plates. Four hours after plating, media was replaced with the same media without serum. Cells were grown overnight to allow formation of monolayer cultures. Lipid synthesis incubation conditions were initially assessed to ensure the linearity of [1-^14C]-acetate incorporation into hepatocyte lipids for up to 4 hours. Hepatocyte lipid synthesis inhibitory activity was assessed during incubations in the presence of 0.25 μCi [1-^14C]-acetate/well (final radiospecific activity in assay is 1 Ci/mol) and 0, 1, 3, 10, 30, 100 or 300 μM of compounds for 4 hours. At the end of the 4-hour incubation period, medium was discarded and cells were washed twice with ice-cold phosphate buffered saline and stored frozen prior to analysis. To determine total lipid synthesis, 170 μl of MicroScint-E® and 50 μl water was added to each well to extract and partition the lipid soluble products to the upper organic phase containing the scintillant. Lipid radioactivity was assessed by scintillation spectroscopy in a Packard TopCount NXT.
# female obese Zucker rats = assay: Serum lipid and glycemic control variables in chow-fed obese female Zucker rats, daily oral gavage for two weeks; format: in vivo, rat; details: Rattus norvegicus, 100 mg/kg daily oral
# Description: Ten- to twelve-week old (400-500 grams) female Zucker fatty rats Cr1: (Zuc)-faBR were obtained from Charles River Laboratories. Animals were acclimated to the laboratory environment for seven days. During the acclimation and study period, animals were housed by group in shoebox polycarbonate cages on Cellu-Dri bedding. The temperature and humidity in the animals' quarters (68-78° F.; 30-75% RH) were monitored and the airflow in the room was sufficient to provide several exchanges per hour with 100% fresh filtered air. An automatic timing device provided an alternating 12-hour cycle of light and dark. Rats received pelleted Purina Laboratory Rodent Chow® (5001) prior to and during the drug intervention period except for a 6-hour phase prior to blood sampling. Fresh water was supplied ad libitum via an automatic watering system. Compounds were dissolved, suspended by mixing in a dosing vehicle consisting of 1.5% carboxymethylcellulose/0.2% Tween 20 or 20% ethanol and 80% polyethylene glycol-200 [v/v]. Dose volume of vehicle or vehicle plus each compound was set at 0.25% of body weight in order to deliver the appropriate dose. Doses were administered daily by oral gavage, approximately between 8-10 AM. Regarding blood sampling, animals were fasted for 6 hours prior to all blood collections. Prior to and after 7 days of dosing, a 1.0- to 2.0-mL sample of blood was collected by administering O2/CO2 anesthesia and bleeding from the orbital venous plexus. Following 14 days of dosing, blood was collected by cardiac puncture after euthanasia with CO2. All blood samples were processed for separation of serum and stored at −80° C. until analysis. Commercially available kits were used to determine serum triglycerides (Roche Diagnostic Corporation, Kit No. 148899 or Boehringer Mannheim, Kit No. 1488872), total cholesterol (Roche Diagnostic Corporation, Kit No. 450061), non-esterified fatty acids (Wako Chemicals, Kit No. 994-75409) and β-hydroxybutyrate (Wako Chemicals, Kit No. 417-73501 or Sigma Kit. No. 310-0) on a Hitachi 912 Automatic Analyzer (Roche Diagnostic Corporation). In some instances, an in-house cholesterol reagent was used to determine total serum cholesterol levels. Serum lipoprotein cholesterol levels were determined by lipoprotein profile analysis. Lipoprotein profiles were analyzed using gel-filtration chromatography on a Superose 6HR (1×30 cm) column equipped with on-line detection of total cholesterol as described by Kieft et al (Kieft, K. A.; Bocan, T. M.; Krause, B. R. Rapid on-line determination of cholesterol distribution among plasma lipoproteins after high-performance gel filtration chromatography. J. Lipid Res. 1991, 32, 859-866.). The total cholesterol content of each lipoprotein was calculated by multiplying the independent values determined for serum total cholesterol by the percent area of each lipoprotein in the profile. The percent body weight gain and the ratio of liver to body weight is also determined. Selected data are shown as absolute values or as a percent change of the pretreatment values in Tables 8 and 9.
# Select compounds (214c, 210c, and 210g) were further evalutated in the Zucker rat by performing a full dose response and measuring additional scrum variables including markers for diabetes (Tables 10-12).
# [1] = 168 h, 1 wk, 100% = 2-fold increase, Table 8, read-out: HDL-Cholesterol, Percent Change from Pre-Treatment
# [2] = 168 h, 1 wk, 100% = 2-fold increase, Table 8, read-out: NonHDL-Cholesterol, Percent Change from Pre-Treatment
# [3] = 168 h, 1 wk, 100% = 2-fold increase, Table 8, read-out: TG, Percent Change from Pre-Treatment
# [4] = 336 h, 2 wk, 100% = 2-fold increase, Table 8, read-out: HDL-Cholesterol, Percent Change from Pre-Treatment
# [5] = 336 h, 2 wk, 100% = 2-fold increase, Table 8, read-out: NonHDL-Cholesterol, Percent Change from Pre-Treatment
# [6] = 336 h, 2 wk, 100% = 2-fold increase, Table 8, read-out: TG, Percent Change from Pre-Treatment
Structure (SMILES),melting point [°C],IC50 (primary rat hepatocytes; Table 6) [µM],change in vivo at 100 mg/kg (female obese Zucker rats; [1]) [%],change in vivo at 100 mg/kg (female obese Zucker rats; [2]) [%],change in vivo at 100 mg/kg (female obese Zucker rats; [3]) [%],change in vivo at 100 mg/kg (female obese Zucker rats; [4]) [%],change in vivo at 100 mg/kg (female obese Zucker rats; [5]) [%],change in vivo at 100 mg/kg (female obese Zucker rats; [6]) [%],"IC50 (primary rat hepatocytes; Table 7, ranges: confidence of estimate insufficient to assign a value) [µM]","change in vivo at 100 mg/kg (female obese Zucker rats; 168 h, 1 wk, Table 9, read-out: HDL-Cholesterol, Percent Change from Pre-Treatment) [%]","change in vivo at 100 mg/kg (female obese Zucker rats; 168 h, 1 wk, Table 9, read-out: NonHDL-Cholesterol, Percent Change from Pre-Treatment) [%]","change in vivo at 100 mg/kg (female obese Zucker rats; 168 h, 1 wk, Table 9, read-out: TG, Percent Change from Pre-Treatment) [%]","change in vivo at 100 mg/kg (female obese Zucker rats; 336 h, 2 wk, Table 9, read-out: HDL-Cholesterol, Percent Change from Pre-Treatment) [%]","change in vivo at 100 mg/kg (female obese Zucker rats; 336 h, 2 wk, Table 9, read-out: NonHDL-Cholesterol, Percent Change from Pre-Treatment) [%]","change in vivo at 100 mg/kg (female obese Zucker rats; 336 h, 2 wk, Table 9, read-out: TG, Percent Change from Pre-Treatment) [%]"
"CC(C)(CCCCC(=O)CCCCC1(C(=O)O)CC1)C(=O)O [Compound 107c, 11-(1-Carboxycyclopropyl)-2,2-dimethyl-7-oxoundecanoic acid]",49 to 52,0.6,104,-84,-93,248,-20,-64,–,–,–,–,–,–,–
"CC(C)(CCCCC(=O)CCCCC1(C(=O)O)CCC1)C(=O)O [Compound 107e, 11-(1-Carboxycyclobutyl)-2,2-dimethyl-7-oxoundecanoic acid]",53 to 55,6,30,4,-54,60,28,-51,–,–,–,–,–,–,–

# Second part, led by results:
melting point [°C],Structure (SMILES),IC50 (primary rat hepatocytes; Table 6) [µM],change in vivo at 100 mg/kg (female obese Zucker rats; [1]) [%],change in vivo at 100 mg/kg (female obese Zucker rats; [2]) [%],change in vivo at 100 mg/kg (female obese Zucker rats; [3]) [%],change in vivo at 100 mg/kg (female obese Zucker rats; [4]) [%],change in vivo at 100 mg/kg (female obese Zucker rats; [5]) [%],change in vivo at 100 mg/kg (female obese Zucker rats; [6]) [%],"IC50 (primary rat hepatocytes; Table 7, ranges: confidence of estimate insufficient to assign a value) [µM]","change in vivo at 100 mg/kg (female obese Zucker rats; 168 h, 1 wk, Table 9, read-out: HDL-Cholesterol, Percent Change from Pre-Treatment) [%]","change in vivo at 100 mg/kg (female obese Zucker rats; 168 h, 1 wk, Table 9, read-out: NonHDL-Cholesterol, Percent Change from Pre-Treatment) [%]","change in vivo at 100 mg/kg (female obese Zucker rats; 168 h, 1 wk, Table 9, read-out: TG, Percent Change from Pre-Treatment) [%]","change in vivo at 100 mg/kg (female obese Zucker rats; 336 h, 2 wk, Table 9, read-out: HDL-Cholesterol, Percent Change from Pre-Treatment) [%]","change in vivo at 100 mg/kg (female obese Zucker rats; 336 h, 2 wk, Table 9, read-out: NonHDL-Cholesterol, Percent Change from Pre-Treatment) [%]","change in vivo at 100 mg/kg (female obese Zucker rats; 336 h, 2 wk, Table 9, read-out: TG, Percent Change from Pre-Treatment) [%]"
99 to 103,"O=C(CCCCC1(C(=O)O)CCCC1)CCCCC1(C(=O)O)CCCC1 [Compound 107g, 1-[9-(1-Carboxycyclopentyl)-5-oxononyl]-1-cyclopentanecarboxylic acid]",113,36,-68,-67,40,-67,-70,–,–,–,–,–,–,–
61 to 62,"CC(C)(CCCCCC(=O)CCCCC(C)(C)C(=O)O)C(=O)O [Compound 226, 2,2,13,13-Tetramethyl-7-oxotetradecanedioc acid]",–,–,–,–,–,–,–,3,240,-30,-65,72,-51,-62
74 to 77,"CC(C)(CCCCCCCC(=O)CCCCCCCC(C)(C)C(=O)O)C(=O)O [Compound 107n, 10-Oxo-2,2,18,18-tetramethyl-nonadecanedioic acid]",10,44,-80,-85,86,-45,-64,–,–,–,–,–,–,–
